Assays:
[1] = Pharmacokinetic assay in mice, blood-brain barrier penetration analysis (Kp); assay type: in vivo; conditions: male, mouse, ICR mice, PO single dose 10 mg/kg, brain vs plasma, read-out: Kp (4 h after administration)
Description: The purpose of this trial is to study the pharmacokinetic behavior of some compounds of the present invention, and the administration method is: ICR mice were orally administered (PO) a single dose, at a dose of 10 mg/kg.
ICR mice male N=3 original source: Shanghai Sippr-Bk Lab Animal Co., Ltd.
The compounds were weighed and dissolved in 20% PG+10% Solutol HS15+70% pH 3 citrate buffer, respectively, shaken well and sonicated to prepare colorless clear solutions. 9 mice were administered orally after an overnight fast. The dose was 10 mg/kg.
• 1) About 90 μL blood was collected via the submandibular vein per time point, heparin sodium anticoagulant was added, the sample was placed on ice after collection, and plasma was centrifuged within 1 hour (centrifugation conditions: 8,000 rpm, 6 minutes, 2-8° C.). • 2) The blood collection time points were 1, 4, and 24 h. The samples were stored in a refrigerator at −20° C. • 3) The plasma sample was 40 μL, 160 μL of ice-cold acetonitrile containing internal standard was added, vortexed for 3 minutes, and centrifuged at 11,000 rpm for 5 minutes. • 4) 100 μL of the supernatant was taken and added to 100 μL of water, 5 μL of the sample was taken and injected into LC/MS/MS for analysis.
AUC or concentration in brain or plasma measured by using the above method was used to calculate the Kp. Kp refers to the relationship between drug concentrations in brain and blood and is used to evaluate the ability of a drug to penetrate the blood-brain barrier. Post-dose Kp was calculated by the following formula: […]

[2] = system: HCT116 MTAP knockout cells; experiment: Human colon cancer HCT116 cell proliferation inhibition test (CellTiter-Glo, 6 days), MTAP knockout cells; assay type: cell-based; conditions: HCT-116, 144 h
Method in brief: (§1)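 Cells seeded overnight in McCoy's 5A with 10% FBS, then exposed to compound from 10 μM top concentration, 4-fold dilutions, 9 points, for 6 days at 37 °C, 5% CO2. Viability by CellTiter-Glo luminescence; IC50 from 4-parameter dose-response curve.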

[3] = system: HCT116 MTAP wild-type cells; experiment: Human colon cancer HCT116 cell proliferation inhibition test (CellTiter-Glo, 6 days), MTAP wild-type cells; assay type: cell-based; conditions: HCT-116, 144 h
Method in brief: as §1

- Kp at 4 h [1]: 0.4
- IC50 [2]: 33 nM
- IC50 [3]: 102 nM
Structure (SMILES): Cc1cc2nc(N)c3ccncc3c2cc1C(=O)N(CC1CC1)[C@@H]1COc2cc(C(F)(F)F)ccc21 [Example 233, (S)-5-amino-N-(cyclopropylmethyl)-8-methyl-N-(6-(trifluoromethyl)-2,3-dihydrobenzofuran-3-yl)benzo[c][2,6]naphthyridin-9-carboxamide]

— US20250320202A1, “PRMT5 INHIBITOR, PREPARATION METHOD THEREFOR, AND PHARMACEUTICAL USE THEREOF” (Abbisko Therapeutics Co., Ltd., priority 2022, published 2025)
